Data: patent US20220274947A1, “NOVEL HETEROARYL-TRIAZOLE COMPOUNDS AS PESTICIDES” (Bayer Aktiengesellschaft, priority 2019, published 2022)

What was measured:
Type in all cases: in vivo
Rhipicephalus microplus [1] = assay: Rhipicephalus (Boophilus) microplus injection test (BOOPMI Inj); conditions: 168 h, injection into adult engorged female ticks, egg deposition after 7 days, read-out: activity (efficacy: 100% means all eggs are infertile); for pest or weed control at 0.004 mg: application rate 4 μg/tick; for pest or weed control at 0.02 mg: application rate 20 μg/tick
Procedure, shortened: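 Compound in DMSO, 1 μL, injected abdominally into five adult engorged females, which were then held in a climate chamber. Read-out is egg fertility, scored from deposition at 7 days, with unclear eggs followed to hatching (~42 days); 0% means all eggs fertile, 100% all infertile.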

Rhipicephalus microplus [2] = assay: Rhipicephalus (Boophilus) microplus in-vitro contact test, larval cattle tick, strain Parkhurst (BOOPMI Cont); conditions: application rate 5 μg/cm^2 (=500 g/ha), tick larvae, after 48 hours, read-out: activity (efficacy: 100% means all larvae are dead or moribund)
Procedure, shortened: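 After 48 h at 27° C. and 85% humidity, percent dead or moribund larvae was scored from negative geotactic behaviour. Larvae (20-50, Parkhurst strain, synthetic pyrethroid-resistant) were exposed in tubes coated with compound from acetone, 900 ppm corresponding to 5 μg/cm^2.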

Ctenocephalides felis = Ctenocephalides felis in-vitro contact test, adult cat flea (CTECFE Cont); conditions: application rate 5 μg/cm^2 (=500 g/ha), adult cat fleas, after 48 hours, read-out: activity (efficacy: 100% means all fleas are dead or moribund)
Procedure, shortened: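 Efficacy, as percent of fleas dead or moribund, was scored 48 h after adults (5-10 per tube) were placed in glass tubes whose walls carried dried compound at 5 μg/cm^2 (900 ppm solution). Moribund meant failing to climb away from a 45-50° C. hot plate within 5 min.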

Diabrotica balteata = Diabrotica balteata spray test; conditions: 168 h, wheat seeds, larvae, after 7 days, read-out: activity (efficacy: 100% means all seedlings have grown up like in the untreated, uninfected control); for pest or weed control at 32 µg/disc, 100 g/ha: application rate 100 g/ha (=32 μg/well); for pest or weed control at 160 µg/disc, 500 g/ha: application rate 500 g/ha (=160 μg/well)
Procedure, shortened: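 Efficacy (%) was scored 7 days after spraying, with 100% meaning growth like the untreated, uninfected control and 0% meaning no seedling grew. Spray solutions of compound in acetone/DMF with emulsifier-containing water went onto 1-day-germinated wheat seeds, and each unit was then infested with 10-20 banded cucumber beetle larvae.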

Spodoptera frugiperda = Spodoptera frugiperda spray test; conditions: in Zea mays, 168 h, read-out: activity (mortality)
Procedure, shortened: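 Percent kill of fall armyworm caterpillars was assessed 7 days after infesting dried, treated maize leaf sections. Treatment was a spray of compound in acetone/dimethylformamide, diluted with water containing emulsifier at 1000 ppm.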

Nezara viridula = Nezara viridula spray test; conditions: in Hordeum vulgare, 96 h, barley plants, larvae, after 4 days; for mortality at 500 g/ha: application rate 500 g/ha; for mortality at 100 g/ha: application rate 100 g/ha
Procedure, shortened: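 Mortality was read at day 4 (0% = no kill, 100% = total kill) after spraying larva-infested barley plants. Test solutions were made from an acetone/DMF concentrate diluted with water holding 1000 ppm alkylarylpolyglycol ether emulsifier.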

SMILES	pest or weed control at 0.004 mg (Rhipicephalus microplus [1])	pest or weed control at 0.02 mg (Rhipicephalus microplus [1])	pest or weed control at 5 µg/cm2 (Rhipicephalus microplus [2])	pest or weed control at 5 µg/cm2 (Ctenocephalides felis)	pest or weed control at 32 µg/disc, 100 g/ha (Diabrotica balteata)	pest or weed control at 160 µg/disc, 500 g/ha (Diabrotica balteata)	mortality at 100 g/ha (Spodoptera frugiperda)	mortality at 500 g/ha (Spodoptera frugiperda)	mortality at 500 g/ha (Nezara viridula)	mortality at 100 g/ha (Nezara viridula)
CCc1nc([C@H](C)NC(=O)c2cc(C(F)(F)F)cc(C(F)(F)F)c2)n(-c2ccc(C#N)cn2)n1 [I-1]	100%	100%	100%	90%	100%	100%	100%	100%		
CCc1nc([C@H](C)NC(=O)c2cc(Cl)cc(Cl)c2)n(-c2ccc(C#N)cn2)n1 [I-2]	100%	100%	100%	100%	100%	100%	100%	100%	90%	
CC(C)c1nc([C@H](C)NC(=O)c2cncc(C(F)(F)F)c2)n(-c2ccc(C#N)cn2)n1 [I-30]	100%	100%	100%	80%	100%		100%			
C[C@H](NC(=O)c1cccc(Cl)n1)c1ncnn1-c1ccc(C#N)cn1 [II-9]		100%	80%		100%	100%	83%	100%	100%	
C[C@H](NC(=O)c1cc(Cl)cc(SC(F)F)c1)c1ncnn1-c1ccc(C#N)cn1 [II-11]	100%	100%	100%	100%	100%	100%	100%	100%		100%
C[C@H](NC(=O)c1cc(Br)cc(Br)c1)c1ncnn1-c1ccc(C#N)cn1 [II-13]	100%	100%	100%	100%	100%		100%	100%	90%	
C[C@H](NC(=O)c1cc(Br)cc(OC(F)(F)F)c1)c1ncnn1-c1ccc(C#N)cn1 [II-14]	100%	100%	100%	100%	100%	100%	100%	100%	100%	100%
Cc1nc([C@H](C)NC(=O)c2cc(Cl)cc(Cl)c2)n(-c2cc(C#N)ccn2)n1 [II-17]	100%	100%	90%	100%	100%	100%		100%		
Cc1nc([C@H](C)NC(=O)c2cc(Cl)cc(C(F)(F)F)c2)n(-c2cc(C#N)ccn2)n1 [II-18]	100%	100%	100%	100%	100%	100%	100%	100%		
Cc1nc([C@H](C)NC(=O)c2cc(C(F)(F)F)cc(C(F)(F)F)c2)n(-c2cc(C#N)ccn2)n1 [II-19]	100%	100%	100%	100%	100%	100%	100%	100%		
